Data reported in US7858637B2, “Administration of TLR7 ligands and prodrugs thereof for treatment of infection by hepatitis C virus” (priority 2003, dated 2010).
Read-outs that look alike come from different tables or passages of the source.

Test system: human peripheral blood mononuclear cells (PBMC)
Assay: PBMC assay of interferon alpha release (masking)
Type: cell-based
Details: Homo sapiens, PBMC, 24 hours exposure, read-out: Amount of INFa relative to that induced by isatoribine at 100 μM
Protocol: A typical experiment would use human peripheral blood mononuclear cells (PBMC) isolated from a healthy donor and placed in replicate cell culture wells; typically, 2×10^6 to 5×10^6 cells are placed in each well. The PBMC are incubated in the absence of test compounds at 37° C. in a humidified atmosphere containing 5% CO2 for 24 hours to allow stabilization to the culture conditions, and then 100 micromolar isatoribine, the TLR7 ligand and a corresponding TLR7 ligand prodrug are added to separate wells containing PBMC from the same donor; untreated controls are included. The concentrations of TLR7 ligand and TLR7 ligand prodrug may be varied to suit the particular experiment, and the PBMC cultures are then incubated at 37° C. in a humidified atmosphere containing 5% CO2 for a period of time ranging from two hours to 48 hours. Samples of cell culture supernate media are taken during the incubation. These are assayed for cytokine production by ELISA. Additionally the amount of TLR7 ligand and TLR7 ligand prodrug remaining at the end of the incubation may be assayed by LC-MS. Cytokine production is calculated relative to production in the isatoribine control, following subtraction of the cytokine production in untreated controls.
Thus, if the TLR7 ligand generates more interferon alpha (a conveniently measured cytokine) than does the corresponding TLR7 ligand prodrug after a similar duration of exposure and concentration, the TLR7 ligand prodrug may be deemed a “masked” TLR7 ligand prodrug.

Molecule CCCCCOC(=O)Nc1nc2ccccc2c2c1ncn2CC(C)C [Compound 34, (1-Isobutyl-1H-imidazo[4,5-c]quinolin-4-yl)-carbamic acid pentyl ester] has an Emax at 100 µM (Table 11) of 0%.

Work on CCOC(=O)Nc1nc(-c2ccccc2)c(Br)c(=O)[nH]1 [Compound 36, (5-Bromo-6-oxo-4-phenyl-1,6-dihydro-pyrimidin-2-yl)-carbamic acid ethyl ester] yielded an Emax at 100 µM (Table 13) of 0%.

With CCOc1nc(N)nc(-c2ccccc2)c1Br [Compound 37, 5-Bromo-4-ethoxy-6-phenyl-pyrimidin-2-ylamine] the Emax at 100 µM (Table 13) was 0%.

C=CCn1c(=O)n([C@@H]2O[C@H](CO)[C@@H](O)[C@H]2O)c2nc(N)ncc21 [Compound 43, 7-Allyl-2-amino-9-β-D-ribofuranosyl-7,9-dihydro-purin-8-one] showed an Emax at 100 µM (Table 10) of 0%.

Molecule C=CCn1c(=O)n([C@@H]2O[C@H](CO)[C@@H](O)[C@H]2O)c2nc(N)nc(OCC)c21 [Compound 45, 7-Allyl-2-amino-6-ethoxy-9-β-D-ribofuranosyl-7,9-dihydro-purin-8-one] has an Emax at 100 µM (Table 10) of 0%.

For Nc1ncc(Br)c(-c2ccccc2)n1 [Compound 48, 5-Bromo-4-phenyl-pyrimidin-2-ylamine], the Emax at 100 µM (Table 13) was 0%.

In the case of CCCCCOC(=O)Nc1nc(-c2ccccc2)c(Br)c(=O)[nH]1 [Compound 49, (5-Bromo-6-oxo-4-phenyl-1,6-dihydro-pyrimidin-2-yl)-carbamic acid pentyl ester], the Emax at 100 µM (Table 13) is reported as 0%.

CCOC(=O)Nc1nc2ccccc2c2c1ncn2CC(C)C [Compound 50, (1-Isobutyl-1H-imidazo[4,5-c]quinolin-4-yl)-carbamic acid ethyl ester] gave an Emax at 100 µM (Table 11) of 0%.

CCOC(=O)Oc1nc2c(N)nc(OCCOC)nc2n1Cc1ccccc1 [Compound 51, Carbonic acid 6-amino-9-benzyl-2-(2-methoxy-ethoxy)-9H-purin-8-yl ester ethyl ester] was tested, and the Emax at 32 µM (Table 14, 32 μM) was 18%.

CCCCCOC(=O)Oc1nc2c(N)nc(OCCOC)nc2n1Cc1ccccc1 [Compound 54, Carbonic acid 6-amino-9-benzyl-2-(2-methoxy-ethoxy)-9H-purin-8-yl ester pentyl ester] gave an Emax at 10 µM (Table 14) of 15%.

Molecule COCCOc1nc(N)c2ncn(Cc3ccccc3)c2n1 [Compound 62, 9-Benzyl-2-(2-methoxy-ethoxy)-9H-purin-6-ylamine] has an Emax at 0.1 µM (Table 14, 0.1 μM) of 0%.

For CCOc1nc2c(N)nc(OCCOC)nc2n1Cc1ccccc1 [Compound 64, 9-Benzyl-8-ethoxy-2-(2-methoxy-ethoxy)-9H-purin-6-ylamine], the Emax at 10 µM (Table 14) was 0%.

COCCOc1nc(N)c2nc(OC)n(Cc3ccccc3)c2n1 [Compound 65, 9-Benzyl-8-methoxy-2-(2-methoxy-ethoxy)-9H-purin-6-ylamine] showed an Emax at 100 µM (Table 14) of 0%.

In the case of C=CCn1c(=O)n([C@@H]2O[C@H](COC(=O)[C@@H](N)C(C)C)[C@@H](O)[C@H]2O)c2nc(N)[nH]c(=O)c21 [Compound 68, 7-Allyl-2-Amino-9-(5′-O-L-valinyl-β-D-ribofuranosyl)-7,9-dihydro-1H-purine-6,8-dione], the Emax at 100 µM (Table 10) is reported as 0%.

CCOc1nc(N)nc2c1sc(=O)n2[C@@H]1O[C@H](CO)[C@@H](O)[C@H]1O [Compound 77, 5-Amino-7-ethoxy-3-β-D-ribofuranosyl-thiazolo[4,5-d]pyrimidin-2-one] showed an Emax at 100 µM (Table 9, same blood donor) of 0%.

Work on COc1nc(N)nc2c1sc(=O)n2[C@@H]1O[C@H](CO)[C@@H](O)[C@H]1O [Compound 79, 5-Amino-7-methoxy-3-β-D-ribofuranosyl-thiazolo[4,5-d]pyrimidin-2-one] yielded an Emax at 100 µM (Table 9, same blood donor) of 0%.

Work on CCOC(=O)NCOc1nc(N)nc2c1sc(=O)n2[C@@H]1O[C@H](CO)[C@@H](O)[C@H]1O [Compound 82, (5-Amino-2-oxo-3-β-D-ribofuranosyl-2,3-dihydro-thiazolo[4,5-d]pyrimidin-7-yloxymethyl)-carbamic acid ethyl ester] yielded an Emax at 100 µM (Table 9, same blood donor) of 0%.
